According to US4340598A, “Hypotensive imidazole derivatives” (Takeda Chemical Industries, Ltd., priority 1979, dated 1982):
Where a name gives a salt, the structure may show the parent alone.

Each compound was assayed on Angiotensin II (aortic blood vessel of a rabbit) (assay: Angiotensin II antagonistic effect, inhibition of A II-induced isometric tension change of isolated rabbit aortic blood vessel). Settings: Oryctolagus cuniculus, 0.25 h; Concn. of drug substance 10^-5 M; A II 4×10^-9 M; 15 minutes treatment; read-out: Potency of inhibition.
Format: cell-based
Description: Angiotensin II (hereinafter referred to briefly as A II) antagonistic effect of the compound (I) of the present invention (aortic blood vessel of a rabbit). The blood-vessel preparation and reaction were done in accordance with the method as described in "European Journal of Pharmacology", vol. 18, pp. 316 (1972). While employing A II in the concentration of 4×10^-9M, the potency of inhibition was calculated by the following equation from changes in isometric tension of the blood vessel brought about by A II and that found after treatment with a test drug substance for 15 minutes, respectively. [formula] where; T1 =Change in isometric tension of the blood vessel brought about by A II without treatment with a test drug substance (g) T2 =Change in tension found after treatment with a test drug substance (g)
For O=C(O)Cc1nc(-c2ccccc2)n(Cc2ccccc2)c1Cl, the inhibition at 10 µM was 10%.
O=C(O)c1c(Cl)nc(-c2ccccc2)n1Cc1ccccc1 was tested, and the inhibition at 10 µM was 5%.
For O=C(O)CCc1c(Cl)nc(-c2ccccc2)n1Cc1ccccc1, the inhibition at 10 µM was 13%.
Compound COC(=O)Cc1cnc(-c2ccccc2)n1Cc1ccc([N+](=O)[O-])cc1 has an inhibition at 10 µM of 38%.
Work on NC(=O)Cc1c(Cl)nc(-c2ccccc2)n1Cc1ccccc1 yielded an inhibition at 10 µM of 20%.
Compound CN(C)c1ccc(-c2nc(Cl)c(CC(N)=O)n2Cc2ccccc2)cc1 has an inhibition at 10 µM of 10%.
CN(C)c1ccc(-c2nc(Cl)c(C(N)=O)n2Cc2ccccc2)cc1 was tested, and the inhibition at 10 µM was 18%.
Cc1ccc(-c2ncc(CC(=O)O)n2Cc2ccccc2)cc1 showed an inhibition at 10 µM of 5%.
For COc1ccc(-c2ncc(CC(=O)O)n2Cc2ccccc2)cc1, the inhibition at 10 µM was 5%.
CCCCn1c(-c2ccccc2)nc(Cl)c1CC(=O)O [1-n-butyl-4-chloro-2-phenylimidazole-5-acetic acid] gave an inhibition at 10 µM of 25%.
Work on O=C(O)Cc1c(Cl)nc(-c2ccccc2)n1CCc1ccccc1 [4-chloro-2-phenyl-1-phenethylimidazole-5-acetic acid hydrochloride] yielded an inhibition at 10 µM of 12%.

Same assay, conditions: Oryctolagus cuniculus, 0.25 h; Concn. of drug substance 10^-6 M; A II 4×10^-9 M; 15 minutes treatment; read-out: Potency of inhibition
CCCCc1nc(CC(=O)O)c(Cl)n1Cc1ccccc1 was tested, and the inhibition at 1 µM was 22%.
With O=C(O)Cc1nc(C2CCCC2)n(Cc2ccccc2)c1Cl the inhibition at 1 µM was 10%.
For CCCCc1nc(CC(=O)O)c(Cl)n1Cc1ccccc1Cl, the inhibition at 1 µM was 30%.
CCCCc1nc(Cl)c(CC(N)=O)n1Cc1ccccc1 [1-Benzyl-2-butyl-4-chloroimidazole-5-acetamide] showed an inhibition at 1 µM of 19%.
